Measured values as given in ChEMBL document CHEMBL1156380, “Inhibition of Mycobacterium tuberculosis growth by saringosterol from Lessonia nigrescens” (J Nat Prod, 2001).
In brackets after ≈: the same amount, converted by molar mass. Activity calls are given as the source filed them. The rule behind the calls is not given here.

Key:
[1] = system: Mycobacterium tuberculosis; assay: Antitubercular activity against Mycobacterium tuberculosis H37Rv ATCC 27294 by BACTEC 460 radiometric assay; format: functional
Vero = assay: Cytotoxicity against african green monkey Vero cells by celltiter 96 aqueous nonradioactive assay; format: cell-based; conditions: Chlorocebus sabaeus

Compound	MIC [1]	IC50 (Vero)
C=C[C@](O)(CC[C@@H](C)[C@H]1CC[C@H]2[C@@H]3CC=C4C[C@@H](O)CC[C@]4(C)[C@H]3CC[C@]12C)C(C)C	1 µg/mL (≈ 2.33 µM)	
C=CC(O)(CC[C@@H](C)[C@H]1CC[C@H]2[C@@H]3CC=C4C[C@@H](O)CC[C@]4(C)[C@H]3CC[C@]12C)C(C)C (stereo partly specified) [SARINGOSTEROL]	0.25 µg/mL (≈ 0.583 µM)	> 128 µg/mL
CO[C@H]1/C=C/O[C@@]2(C)Oc3c(C)c(O)c4c(O)c(c(/C=N/N5CCN(C)CC5)c(O)c4c3C2=O)NC(=O)/C(C)=C\C=C\[C@H](C)[C@H](O)[C@@H](C)[C@@H](O)[C@@H](C)[C@H](OC(C)=O)[C@@H]1C [RIFAMPIN]	0.25 µg/mL (≈ 0.304 µM)	
C=C[C@@](O)(CC[C@@H](C)[C@H]1CC[C@H]2[C@@H]3CC=C4C[C@@H](O)CC[C@]4(C)[C@H]3CC[C@]12C)C(C)C	0.125 µg/mL (≈ 0.292 µM)	
C/C=C(\CC[C@@H](C)[C@H]1CC[C@H]2[C@@H]3CC=C4C[C@@H](O)CC[C@]4(C)[C@H]3CC[C@]12C)C(C)C	inactive	
